Test results published in ChEMBL document CHEMBL1128467, “Novel, potent, and selective 5-HT3 receptor antagonists based on the arylpiperazine skeleton: synthesis, structure, biological activity, and comparative molecular field analysis studies” (J Med Chem, 1995).

Legend:
[1] = biological target: T1, 5-hydroxytryptamine receptor 1B (Rattus norvegicus, UniProt P28564); type: tissue-based, Striatum
[2] = biological target: T2, 5-hydroxytryptamine receptor 2A (Rattus norvegicus, UniProt P14842)
[3] = biological target: T3, Serotonin 3 (5-HT3) receptor (Rattus norvegicus, UniProt P35563+Q9JJ16); assay: Binding affinity for 5-hydroxytryptamine 3 receptor from rat cortex using [3H]BRL-43694 as radioligand
T3 sequence (P35563 whole entry): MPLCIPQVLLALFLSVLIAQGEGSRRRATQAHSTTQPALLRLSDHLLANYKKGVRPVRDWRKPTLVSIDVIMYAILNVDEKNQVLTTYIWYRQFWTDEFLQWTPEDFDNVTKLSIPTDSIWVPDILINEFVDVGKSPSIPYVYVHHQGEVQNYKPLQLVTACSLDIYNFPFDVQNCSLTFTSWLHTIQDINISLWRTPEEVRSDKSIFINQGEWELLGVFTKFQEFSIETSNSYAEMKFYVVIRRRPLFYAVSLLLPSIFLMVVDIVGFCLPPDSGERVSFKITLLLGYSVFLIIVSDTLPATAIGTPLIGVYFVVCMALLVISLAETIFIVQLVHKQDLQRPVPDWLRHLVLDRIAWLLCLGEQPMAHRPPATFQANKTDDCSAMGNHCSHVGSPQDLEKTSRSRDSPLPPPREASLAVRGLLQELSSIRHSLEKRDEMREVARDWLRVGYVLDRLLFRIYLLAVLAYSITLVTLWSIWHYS
T3 sequence (Q9JJ16 whole entry): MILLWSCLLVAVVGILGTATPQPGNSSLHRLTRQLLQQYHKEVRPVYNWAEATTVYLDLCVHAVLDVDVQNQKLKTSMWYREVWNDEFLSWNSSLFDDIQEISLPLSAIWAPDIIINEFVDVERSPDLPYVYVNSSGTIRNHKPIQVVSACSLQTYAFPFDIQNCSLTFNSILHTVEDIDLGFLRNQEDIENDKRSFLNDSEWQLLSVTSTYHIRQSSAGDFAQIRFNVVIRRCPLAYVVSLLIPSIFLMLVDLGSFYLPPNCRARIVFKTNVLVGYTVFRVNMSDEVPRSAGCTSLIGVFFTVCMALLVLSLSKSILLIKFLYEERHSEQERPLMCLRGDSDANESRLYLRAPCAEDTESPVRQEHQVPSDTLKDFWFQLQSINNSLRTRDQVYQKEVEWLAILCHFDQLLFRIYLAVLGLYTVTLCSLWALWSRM

[4] = biological target: 5-hydroxytryptamine receptor 2C (Sus scrofa); assay: The compound was tested for their binding affinity towards 5-hydroxytryptamine 2C receptor
[5] = biological target: T4, 5-hydroxytryptamine receptor 1A (Rattus norvegicus, UniProt P19327); type: tissue-based, Hippocampus
T4 sequence (P19327 whole entry): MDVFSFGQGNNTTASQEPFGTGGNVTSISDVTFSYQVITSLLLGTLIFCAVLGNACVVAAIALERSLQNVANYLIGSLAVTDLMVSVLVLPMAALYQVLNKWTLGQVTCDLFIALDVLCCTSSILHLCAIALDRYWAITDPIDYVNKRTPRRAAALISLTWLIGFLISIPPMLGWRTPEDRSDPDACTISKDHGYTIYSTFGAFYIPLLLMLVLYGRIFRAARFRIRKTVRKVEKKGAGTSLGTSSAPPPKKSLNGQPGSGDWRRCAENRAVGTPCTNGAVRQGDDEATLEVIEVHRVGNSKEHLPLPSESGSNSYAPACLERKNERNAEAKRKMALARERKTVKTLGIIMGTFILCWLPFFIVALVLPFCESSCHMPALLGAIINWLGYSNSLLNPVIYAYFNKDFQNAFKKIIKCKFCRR

[6] = biological target: T5, Sodium-dependent serotonin transporter (Rattus norvegicus, UniProt P31652)
[7] = system: 5-hydroxytryptamine receptor 2C (Sus scrofa)
[8] = biological target: T1, 5-hydroxytryptamine receptor 1B; assay: The compound was tested for their binding affinity towards 5-hydroxytryptamine 1B receptor from rat striatum using [3H]5-HT as radioligand; Nonactive at 10 uM
[9] = biological target: T2, 5-hydroxytryptamine receptor 2A; assay: The compound was tested for its binding affinity towards 5-hydroxytryptamine 2A receptor from rat cortex using [3H]-ketanserin as radioligand; Nonactive at 10 uM
[10] = biological target: T6, 5-hydroxytryptamine receptor 4 (Cavia porcellus, UniProt O70528); assay: The compound was tested for their binding affinity towards 5-hydroxytryptamine 4 receptor from guinea pig striatum using [3H]GR-113808 as radioligand.
[11] = biological target: T1, 5-hydroxytryptamine receptor 1B; assay: The compound was tested for their binding affinity towards 5-hydroxytryptamine 1B receptor from rat striatum using [3H]5-HT as radioligand
[12] = biological target: T6, 5-hydroxytryptamine receptor 4
[13] = biological target: T3, Serotonin 3 (5-HT3) receptor; assay: The compound was tested for its binding affinity towards 5-hydroxytryptamine 3 receptor from rat cortex using [3H]BRL-43694 as radioligand; NA means Not active
[14] = system: 5-hydroxytryptamine receptor 2C (Sus scrofa); assay: The compound was tested for their binding affinity towards 5-hydroxytryptamine 2C receptor from pig cortex using [3H]mesulergine as radioligand; Nonactive at 10 uM
[15] = biological target: T6, 5-hydroxytryptamine receptor 4; assay: Displacement of [3H]-GR113808 from 5-HT4 receptor of guinea pig striatum
[16] = biological target: T1, 5-hydroxytryptamine receptor 1B; assay: The compound was tested for their binding affinity towards 5-hydroxytryptamine 1B receptor from rat striatum using [3H]5-HT as radioligand.
[17] = system: 5-hydroxytryptamine receptor 2C (Sus scrofa); assay: The compound was tested for their binding affinity towards 5-hydroxytryptamine 2C receptor using [3H]mesulergine as radioligand; Nonactive at 10 uM
[18] = biological target: T5, Sodium-dependent serotonin transporter; assay: Effect of compound on Serotonin transporter uptake from rat cortex using [3H]citalopram as radioligand
[19] = biological target: T6, 5-hydroxytryptamine receptor 4; assay: The compound was tested for their binding affinity towards 5-hydroxytryptamine 4 receptor from guinea pig striatum using [3H]GR-113808 as radioligand; Nonactive at 10 uM
[20] = biological target: T3, Serotonin 3 (5-HT3) receptor; assay: The compound was tested for their binding affinity towards 5-hydroxytryptamine 3 receptor; Nonactive at 10 uM; type: protein-complex assay
[21] = biological target: T2, 5-hydroxytryptamine receptor 2A; assay: The compound was tested for its binding affinity towards 5-hydroxytryptamine 2A receptor from rat cortex using [3H]ketanserin as radioligand.; Nonactive at 10 uM
[22] = biological target: T5, Sodium-dependent serotonin transporter; assay: Effect of compound on Serotonin transporter uptake from rat cortex using [3H]citalopram as radioligand; Nonactive at 10 uM

T1 sequence (P28564 whole entry): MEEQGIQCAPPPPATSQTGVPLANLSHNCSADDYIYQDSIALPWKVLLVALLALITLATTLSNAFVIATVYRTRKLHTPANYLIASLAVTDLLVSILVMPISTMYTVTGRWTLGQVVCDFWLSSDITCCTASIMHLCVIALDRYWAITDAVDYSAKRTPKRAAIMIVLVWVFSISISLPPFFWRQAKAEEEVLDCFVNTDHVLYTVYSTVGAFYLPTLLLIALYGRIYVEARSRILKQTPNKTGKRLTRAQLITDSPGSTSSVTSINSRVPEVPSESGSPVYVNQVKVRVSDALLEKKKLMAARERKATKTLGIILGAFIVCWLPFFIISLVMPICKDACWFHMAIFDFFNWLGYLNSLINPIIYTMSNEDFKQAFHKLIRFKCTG
T5 sequence (P31652 whole entry): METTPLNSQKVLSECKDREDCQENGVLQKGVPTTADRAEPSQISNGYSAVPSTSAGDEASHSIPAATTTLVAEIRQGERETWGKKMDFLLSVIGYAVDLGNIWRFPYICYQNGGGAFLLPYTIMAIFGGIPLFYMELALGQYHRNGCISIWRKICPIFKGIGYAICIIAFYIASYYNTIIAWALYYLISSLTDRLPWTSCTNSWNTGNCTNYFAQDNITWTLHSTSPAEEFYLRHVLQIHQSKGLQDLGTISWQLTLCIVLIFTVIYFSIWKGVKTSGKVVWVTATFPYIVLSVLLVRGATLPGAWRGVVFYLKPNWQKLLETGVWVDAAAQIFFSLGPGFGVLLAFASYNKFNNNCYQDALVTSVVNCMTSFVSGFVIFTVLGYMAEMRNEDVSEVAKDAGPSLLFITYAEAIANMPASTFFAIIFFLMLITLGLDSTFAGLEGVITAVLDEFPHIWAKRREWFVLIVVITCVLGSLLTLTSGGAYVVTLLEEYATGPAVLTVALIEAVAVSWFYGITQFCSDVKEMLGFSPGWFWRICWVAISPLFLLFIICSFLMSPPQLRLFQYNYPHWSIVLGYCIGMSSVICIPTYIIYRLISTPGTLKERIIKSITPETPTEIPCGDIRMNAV
T6 sequence (O70528 whole entry): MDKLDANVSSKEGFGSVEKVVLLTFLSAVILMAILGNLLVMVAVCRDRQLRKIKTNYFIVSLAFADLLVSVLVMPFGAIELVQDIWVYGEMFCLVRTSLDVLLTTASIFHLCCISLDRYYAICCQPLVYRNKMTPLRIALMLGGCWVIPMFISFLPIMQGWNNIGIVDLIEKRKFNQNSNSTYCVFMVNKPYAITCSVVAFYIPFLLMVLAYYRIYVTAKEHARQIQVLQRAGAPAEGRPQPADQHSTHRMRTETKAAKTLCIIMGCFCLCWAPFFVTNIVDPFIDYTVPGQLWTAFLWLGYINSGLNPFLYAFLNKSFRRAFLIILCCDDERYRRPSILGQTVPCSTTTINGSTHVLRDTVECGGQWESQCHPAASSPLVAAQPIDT
T2 sequence (P14842 whole entry): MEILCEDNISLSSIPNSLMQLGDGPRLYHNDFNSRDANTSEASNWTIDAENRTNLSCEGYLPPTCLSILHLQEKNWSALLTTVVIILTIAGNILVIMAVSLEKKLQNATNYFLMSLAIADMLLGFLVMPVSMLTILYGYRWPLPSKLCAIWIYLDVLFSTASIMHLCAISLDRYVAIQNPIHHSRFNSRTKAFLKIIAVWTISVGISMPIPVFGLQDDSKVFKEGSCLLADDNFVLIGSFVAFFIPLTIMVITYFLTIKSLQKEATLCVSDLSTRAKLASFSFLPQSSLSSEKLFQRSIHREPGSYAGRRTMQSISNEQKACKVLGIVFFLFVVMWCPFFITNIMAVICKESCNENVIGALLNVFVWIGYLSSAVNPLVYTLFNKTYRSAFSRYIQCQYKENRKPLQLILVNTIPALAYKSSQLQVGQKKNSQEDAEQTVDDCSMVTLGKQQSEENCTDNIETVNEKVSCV

Structure (SMILES): COc1cc2c(N3CCN(C)CC3)nc3ccccc3c2c2ccccc12
- Ki [1]: Not Active
- Ki ([2]; read-out: Ki): 240 nM
- Ki [3]: 41.6 nM
- Ki [4]: 2300 nM

Structure (SMILES): CCN1CCN(c2nc3ccccc3c3c2ccc2ccccc23)CC1
- Ki [5]: Not Active
- Ki [1]: Not Active
- Ki ([2]; read-out: Ki): 640 nM
- Ki [3]: 16.4 nM
- Ki [6]: Not Active
- Ki [7]: Not Active

Structure (SMILES): CCN1CCN(c2nc3ccccc3c3c2cc(OC)c2ccccc23)CC1
- Ki [1]: Not Active
- Ki ([2]; read-out: Ki): 690 nM
- Ki [3]: 220 nM
- Ki [7]: Not Active

Structure (SMILES): CCN1CCN(c2nc3ccccc3c3c2CCOc2ccccc2-3)CC1
- Ki [5]: Not Active
- Ki [8]: Not Active
- Ki [9]: Not Active

Structure (SMILES): CN1CCN(c2nc3ccccc3c3c2oc2ccccc23)CC1
- Ki [5]: Not Active
- Ki [1]: Not Active
- Ki ([2]; read-out: Ki): 450 nM
- Ki ([10]; read-out: Ki): 6900 nM
- Ki [3]: 12.5 nM
- Ki [6]: Not Active
- Ki [7]: Not Active

Structure (SMILES): COc1cc2c(N3CCNCC3)nc3ccccc3c2c2ccccc12
- Ki [5]: Not Active
- Ki [1]: Not Active
- Ki ([2]; read-out: Ki): 1100 nM
- Ki [3]: 66.5 nM
- Ki [6]: Not Active
- Ki [7]: Not Active

Structure (SMILES): CN(C)CCSc1nc2ccccc2c2c1CCOc1ccccc1-2
- Ki [5]: Not Active
- Ki [11]: 1300 nM
- Ki ([2]; read-out: Ki): 2800 nM
- Ki [3]: 45.9 nM
- Ki [6]: Not Active
- Ki [7]: Not Active

Structure (SMILES): CN1CCN(c2nc3ccccc3c3c2COc2ccccc2-3)CC1
- Ki [5]: Not Active
- Ki [1]: Not Active
- Ki ([2]; read-out: Ki): 1400 nM
- Ki [12]: Not Active
- Ki [3]: 1.6 nM
- Ki [6]: Not Active
- Ki [7]: Not Active

Structure (SMILES): COc1cc2c(SCCN(C)C)nc3ccccc3c2c2ccccc12
- Ki [5]: Not Active
- Ki [1]: Not Active
- Ki [2]: Not Active
- Ki [13]: Not Active
- Ki [6]: Not Active
- Ki [7]: Not Active

Structure (SMILES): CN1CCN(c2nc3ccccc3c3c2ccc2ccccc23)CC1
- Ki [5]: Not Active
- Ki [1]: Not Active
- Ki ([2]; read-out: Ki): 920 nM
- Ki [10]: Not Active
- Ki [3]: 9.5 nM
- Ki [6]: Not Active
- Ki [14]: Not Active

Structure (SMILES): CN1CCN(c2nc3ccccc3c3c2CCc2ccccc2-3)CC1
- Ki [5]: Not Active
- Ki [8]: Not Active
- Ki ([2]; read-out: Ki): 400 nM
- Ki [15]: 6600 nM
- Ki [3]: 3.5 nM
- Ki [6]: Not Active
- Ki [4]: 7200 nM

Structure (SMILES): c1ccc2c(c1)nc(N1CCNCC1)c1oc3ccccc3c12
- Ki [5]: Not Active
- Ki [16]: 280 nM
- Ki ([2]; read-out: Ki): 1200 nM
- Ki [3]: 32.5 nM
- Ki [6]: Not Active
- Ki [17]: Not Active

Structure (SMILES): c1ccc2c(c1)OCCc1c(N3CCNCC3)nc3ccccc3c1-2
- Ki [5]: Not Active
- Ki [11]: 420 nM
- Ki ([2]; read-out: Ki): 3200 nM
- Ki [18]: 330 nM

Structure (SMILES): c1ccc2c(c1)ccc1c(N3CCNCC3)nc3ccccc3c12
- Ki [5]: Not Active
- Ki [1]: Not Active
- Ki ([2]; read-out: Ki): 1100 nM
- Ki [3]: 130 nM
- Ki [6]: Not Active
- Ki [7]: Not Active

Structure (SMILES): CCN1CCN(c2nc3ccccc3c3c2COc2ccccc2-3)CC1
- Ki [5]: Not Active
- Ki [1]: Not Active
- Ki ([2]; read-out: Ki): 1100 nM
- Ki [3]: 53.3 nM
- Ki [6]: Not Active
- Ki [7]: Not Active

Structure (SMILES): CN1CCN(c2nc3ccccc3c3c2CCOc2ccccc2-3)CC1
- Ki [5]: Not Active
- Ki [1]: Not Active
- Ki ([2]; read-out: Ki): 2400 nM
- Ki [19]: Not Active

Structure (SMILES): c1ccc2c(c1)CCc1c(N3CCNCC3)nc3ccccc3c1-2
- Ki [5]: Not Active
- Ki [1]: Not Active
- Ki ([2]; read-out: Ki): 640 nM
- Ki [3]: 5.4 nM
- Ki [18]: 2600 nM
- Ki [7]: Not Active

Structure (SMILES): CN(C)CCSc1nc2ccccc2c2c1ccc1ccccc12
- Ki [5]: Not Active
- Ki [1]: Not Active
- Ki ([2]; read-out: Ki): 2400 nM
- Ki [20]: Not Active
- Ki [6]: Not Active
- Ki [7]: Not Active

Structure (SMILES): CN(C)CCSc1nc2ccccc2c2c1COc1ccccc1-2
- Ki [5]: Not Active
- Ki [1]: Not Active
- Ki ([2]; read-out: Ki): 1800 nM
- Ki [20]: Not Active
- Ki [6]: Not Active
- Ki [7]: Not Active

Structure (SMILES): CN(C)CCSc1nc2ccccc2c2c1CCc1ccccc1-2
- Ki [5]: Not Active
- Ki [8]: Not Active
- Ki ([2]; read-out: Ki): 930 nM
- Ki [20]: Not Active
- Ki [7]: Not Active

Structure (SMILES): CN(C)CCSc1nc2ccccc2c2c1oc1ccccc12
- Ki [5]: Not Active
- Ki [1]: Not Active
- Ki [21]: Not Active
- Ki [3]: 410 nM
- Ki [6]: Not Active
- Ki [7]: Not Active

Structure (SMILES): CCN1CCN(c2nc3ccccc3c3c2oc2ccccc23)CC1
- Ki [5]: Not Active
- Ki [1]: Not Active
- Ki ([2]; read-out: Ki): 530 nM
- Ki [3]: 52.2 nM
- Ki [22]: Not Active
- Ki [7]: Not Active

Structure (SMILES): CCN1CCN(c2nc3ccccc3c3c2CCc2ccccc2-3)CC1
- Ki [5]: Not Active
- Ki [1]: Not Active
- Ki ([2]; read-out: Ki): 600 nM
- Ki [3]: 8 nM
- Ki [6]: Not Active
- Ki [7]: Not Active

Structure (SMILES): c1ccc2c(c1)OCc1c(N3CCNCC3)nc3ccccc3c1-2
- Ki [5]: Not Active
- Ki [1]: Not Active
- Ki ([2]; read-out: Ki): 2800 nM
- Ki [3]: 11.5 nM
- Ki [18]: 360 nM
- Ki [7]: Not Active

Structure (SMILES): c1ccc2c(CCC3CCNCC3)c[nH]c2c1 [INDALPINE]
- Ki [18]: 2 nM

Structure (SMILES): c1ccc2nc(N3CCNCC3)ccc2c1 [QUIPAZINE]
- Ki [11]: 208 nM
- Ki ([2]; read-out: Ki): 130 nM
- Ki [12]: Not Active
- Ki [3]: 1.2 nM
- Ki [18]: 43 nM
